Assay results reported in patent US20110230552A1, “USE OF DRONEDARONE FOR THE PREPARATION OF A MEDICAMENT FOR THE PREVENTION OF STROKE OR TRANSIENT ISCHEMIC ATTACK” (SANOFI-AVENTIS, priority 2008, published 2011).
Where a name gives a salt, the structure may show the parent alone. Read-outs that look alike come from different tables or passages of the source.

How the values were obtained:
[1] = tested on: patients with persistent atrial fibrillation; conditions: SAFE-T trial, cited from earlier work; for increasing the time to a recurrence of atrial fibrillation, versus placebo / effectiveness in increasing time to recurrence of atrial fibrillation relative to sotalol: P<0.001; for number of strokes per 100 patient-years of follow-up: calculated from page 1866 of Singh et al., placebo 1.91
[2] = tested on: patients with a history of atrial fibrillation or atrial flutter; experiment: Prospective, multinational, double-blind, randomized, placebo-controlled, parallel group trial (ATHENA) of dronedarone hydrochloride for prevention of stroke; assay type: in vivo, human
Protocol: Efficacy of dronedarone and its pharmaceutically acceptable salts versus placebo for the prevention of stroke was provided via dronedarone hydrochloride during a prospective, multinational, double-blind, randomized, multi-center, placebo-controlled, parallel group trial.
Eligible patients have a history of atrial fibrillation or atrial flutter and/or may be in normal sinus rhythm or in atrial fibrillation or flutter at the time of recruitment. Recruitment of patients was conducted taking into account the following inclusion criteria:
1) One of the following risk factors had to be present: • age equal to or greater than 70 years, • hypertension (taking antihypertensives of at least two different classes), • diabetes, • history of cerebral stroke (transient ischemic event or completed cerebral stroke) or of systemic embolism, • left atrial diameter greater than or equal to 50 mm measured by echocardiography, • left ventricular ejection fraction less than 40%, measured by two-dimensional echography; or • age equal to or above 70, or even above 75, possibly combined with at least one of the risk factors below: • hypertension (taking antihypertensives of at least two different classes), • diabetes, • history of cerebral stroke (transient ischemic event or completed cerebral stroke) or of systemic embolism, • left atrial diameter greater than or equal to 50 mm measured by echocardiography, • left ventricular ejection fraction less than 40%, measured by two-dimensional echography;
2) availability of one electrocardiogram within the last six months, showing that the patients was or is in atrial fibrillation/flutter,
3) availability of one electrocardiogram within the last six months, showing that the patients was or is in sinus rhythm.
Study drug treatment units (placebo or dronedarone hydrochloride corresponding to 400 mg of base) were such that each patient took one tablet in the morning during or shortly after breakfast and one tablet in the evening during or shortly after dinner.
The treatment duration depended on the time of recruitment of each patient in the trial and could be comprised from 12 months to 30 months.
Results were calculated using non-parametric Kaplan-Meier estimate.
Cox's proportional hazard model was used to estimate the hazard ratio also called relative risk.
Relative risk (RR) is the ratio between the risk of having a stroke (or transient ischemic attack (TIA)) for patients treated with dronedarone and the risk of having a stroke (or transient ischemic attack (TIA)) for patients treated with placebo.
Percentage of decrease of an event is calculated as follow: […]

[3] = on-treatment analysis of 30 months
[4] = versus placebo, Cox's proportional hazard model

Compound: CCCCc1oc2ccccc2c1C(=O)c1cc(I)c(OCCN(CC)CC)c(I)c1 [amiodarone]
- increasing the time to a recurrence of atrial fibrillation, versus placebo [1]: significantly more effective than placebo
- effectiveness in increasing time to recurrence of atrial fibrillation relative to sotalol ([1]; analysis according to the treatment actually received): four times as effective
- number of strokes per 100 patient-years of follow-up [1]: 2.06 per 100 patient-years
- effectiveness in increasing time to recurrence of atrial fibrillation relative to sotalol ([1]; intention-to-treat analysis): six times as effective as sotalol

Compound: CCCCc1oc2ccc(NS(C)(=O)=O)cc2c1C(=O)c1ccc(OCCCN(CCCC)CCCC)cc1 [dronedarone hydrochloride, 2-n-butyl-3-[4-(3-di-n-butylaminopropoxy)benzoyl]-5-méthylsulfonamido-benzofuranne]
- fatal stroke events reported ([2]; 2301 of 4628 patients on drug, 400 mg base twice daily, 12 to 30 months, placebo group 18 events): 11
- ischemic stroke events reported ([2]; 2301 of 4628 patients on drug, 400 mg base twice daily, 12 to 30 months, placebo group 49 events): 33
- stroke events reported ([2]; 2301 of 4628 patients on drug, 400 mg base twice daily, 12 to 30 months, placebo group 70 events): 45
- stroke or TIA events reported ([2]; 2301 of 4628 patients on drug, 400 mg base twice daily, 12 to 30 months, placebo group 80 events): 52
- ACS events reported (cardiovascular hospitalization for Acute Coronary Syndrome) ([2]; 2301 of 4628 patients on drug, 400 mg base twice daily, 12 to 30 months, placebo group 89 events): 62
- stroke, Acute Coronary Syndrome (ACS) or cardiovascular death events reported ([2]; 2301 of 4628 patients on drug, 400 mg base twice daily, 12 to 30 months, placebo group 216 events): 147
- stroke, Acute Coronary Syndrome (ACS) or death events reported ([2]; 2301 of 4628 patients on drug, 400 mg base twice daily, 12 to 30 months, placebo group 262 events): 196
- time course of effect on first stroke (FIG. 2, Kaplan Meier cumulative incidence curves) [2, 3]: occurred early and increased over time
- time course of effect on first stroke or TIA (FIG. 1, Kaplan Meier cumulative incidence curves) [2, 3]: occurred early and increased over time
- relative risk of cardiovascular hospitalization for Acute Coronary Syndrome [2, 4]: 0.70
- relative risk of fatal stroke [2, 4]: 0.62
- relative risk of ischemic stroke [2, 4]: 0.68
- relative risk of stroke [2, 4]: 0.65
- relative risk of stroke or TIA [2, 4]: 0.65
- relative risk of stroke, Acute Coronary Syndrome (ACS) or cardiovascular death [2, 4]: 0.68
- decrease of the relative risk of cardiovascular hospitalization for Acute Coronary Syndrome ([2]; versus placebo, x=1-RR): 30%
- decrease of the relative risk of fatal stroke ([2]; versus placebo, x=1-RR): 38%
- decrease of the relative risk of ischemic stroke ([2]; versus placebo, x=1-RR): 32%
- decrease of the relative risk of stroke ([2]; versus placebo, x=1-RR): 35%
- decrease of the relative risk of stroke or TIA ([2]; versus placebo, x=1-RR): 35%
- decrease of the relative risk of stroke, Acute Coronary Syndrome (ACS) or cardiovascular death ([2]; versus placebo, x=1-RR): 32%
- decrease of the relative risk of stroke, Acute Coronary Syndrome (ACS) or death ([2]; versus placebo, x=1-RR): 25%

Compound: CC(C)NCC(O)c1ccc(NS(C)(=O)=O)cc1 (stereo not shown) [sotalol]
- increasing the time to a recurrence of atrial fibrillation, versus placebo [1]: significantly more effective than placebo
- number of strokes per 100 patient-years of follow-up [1]: 2.71 per 100 patient-years
